Experimental data: patent US20250129055A1, “GLUCOSIDE DERIVATIVE, AND PREPARATION METHOD THEREFOR AND APPLICATION THEREOF” (BEIJING INCREASE INNOVATIVE DRUG CO., LTD., priority 2020, published 2025)

Tested on: Alloxan diabetic mice
Test: Efficacy in Alloxan diabetes model mice
Assay type: in vivo
Conditions: for HbA1c: 32nd day; for Concentration of blood glucose 1 h: 1 h after administration; for Concentration of blood glucose 2 h: 2 h after administration; for Concentration of blood glucose 4 h: 4 h after administration; for Concentration of blood glucose 8 h: 8 h after administration; for Concentration of blood glucose 24 h: 24 h after administration; for Concentration of blood glucose 0 h: before administration; for Concentration of blood glucose (random): random blood glucose on the 28th day
Description: Test Example 3 Research on efficacy of the compounds of the present invention in in vivo anti-Alloxan diabetes model mice
Alloxan diabetes mice were used. Normal ICR mice (male, 22-24 g) were randomly divided into groups including normal group, model group (con), positive control group and test compound groups with four different doses (n=11), and the mice without injection of Alloxan were in a normal control group (n=10).
Mice were administered with drugs by gavage.
Single administration: Mice were fasted for 3 h, and then the fasting blood (0 min) was collected. Then the mice in each group were administered with drugs by gavage. After 1 h, they were administered with a glucose ([…]) solution. Blood was collected at 30 min, 60 min, 120 min, and 180 min after the glucose administration. The blood glucose level was measured using glucose oxidase-peroxidase method, and the area under the blood glucose curve was calculated.
On the 6th day of continuous administration, under the condition of no fasting, blood samples were collected from mice before administration (0 h), 1 h, 2 h, 4 h, 8 h and 24 h after administration to measure blood glucose.
On the 9th day of continuous administration, the mice were fasted for 1 h and then administered with drugs by gavage. An oral glucose tolerance test (OGTT) was performed 1 h after administration.
On the 16th day of continuous administration, under the condition of no fasting, urine samples were collected from mice 1 h after administration to measure the concentration of urine glucose.
On the 22nd day of continuous administration, the mice were fasted for 1 h and then administered with drugs by gavage, and blood samples were collected to measure the fasting blood glucose 1 h after administration.
On the 28th day of continuous administration, under the condition of no fasting, blood samples were collected from mice 1 h after administration to measure the random blood glucose.
On the 32nd day of continuous administration, under the condition of no fasting, blood samples were collected from mice to measure glycosylated hemoglobin (HbA1c).
The data were expressed as mean±SEM (n=10-11). The comparison between multiple groups was performed by one-way analysis of variance, and the comparison between two groups was performed by Dunnett's t test. Statistical graphing was performed using Graphpad Prism software.

[1] = 0.25 mg/kg, OGTT on the 9th day
[2] = 0.25 mg/kg, non-fasting, 6th day
[3] = 0.5 mg/kg, non-fasting, 6th day
[4] = 1.0 mg/kg, non-fasting, 6th day

CS[C@H]1O[C@@H](c2ccc(C)c(Cc3ccc4c(c3)OCCO4)c2)[C@H](O)[C@@H](O)[C@@H]1O (stereo in doubt) [Compound 2, 2-[3-(2,3-dihydro-1,4-benzodioxin-6-ylmethyl)-4-methylphenyl]-6-(methylthio)oxane-3,4,5-triol]
Concentration of fasting blood glucose, the 9th day (0.25 mg/kg): 307.7 ± 23.1 mg/dL
Concentration of fasting blood glucose, the 22nd day (0.25 mg/kg): 305.6 ± 16.5 mg/dL
HbA1c (0.25 mg/kg): 7.2 ± 0.4%
AUC of blood glucose [1]: 541.5 ± 22.8 mg·h/dL
Concentration of blood glucose 0 min [1]: 307.7 ± 23.1 mg/dL
Concentration of blood glucose 30 min [1]: 303.0 ± 8.6 mg/dL
Concentration of blood glucose 60 min [1]: 268.5 ± 13.5 mg/dL
Concentration of blood glucose 120 min [1]: 223.4 ± 11.6 mg/dL
AUC of blood glucose (0.25 mg/kg, non-fasting, 6th day, 0-24 h): 12051 ± 437.8 mg·h/dL
Concentration of blood glucose 1 h [2]: 458.4 ± 25.2 mg/dL
Concentration of blood glucose 2 h [2]: 430.7 ± 31.3 mg/dL
Concentration of blood glucose 4 h [2]: 404.3 ± 33.8 mg/dL
Concentration of blood glucose 8 h [2]: 478.2 ± 23.3 mg/dL
Concentration of blood glucose 24 h [2]: 585.3 ± 17.9 mg/dL
Concentration of blood glucose 0 h [2]: 540.1 ± 20.1 mg/dL
Concentration of blood glucose (random) (0.25 mg/kg): 491.1 ± 26.5 mg/dL
Concentration of fasting blood glucose, the 9th day (0.5 mg/kg): 249.7 ± 14.7 mg/dL
Concentration of fasting blood glucose, the 22nd day (0.5 mg/kg): 236.0 ± 13.7 mg/dL
HbA1c (0.5 mg/kg): 6.1 ± 0.4 %
AUC of blood glucose (0.5 mg/kg, OGTT on the 9th day): 468.3 ± 18.1 mg·h/dL
Concentration of blood glucose 0 min (0.5 mg/kg, OGTT on the 9th day): 249.7 ± 14.7 mg/dL
Concentration of blood glucose 30 min (0.5 mg/kg, OGTT on the 9th day): 290.3 ± 13.0 mg/dL
Concentration of blood glucose 60 min (0.5 mg/kg, OGTT on the 9th day): 231.0 ± 10.1 mg/dL
Concentration of blood glucose 120 min (0.5 mg/kg, OGTT on the 9th day): 175.0 ± 12.0 mg/dL
AUC of blood glucose (0.5 mg/kg, non-fasting, 6th day, 0-24 h): 12059 ± 372.3 mg·h/dL
Concentration of blood glucose 1 h [3]: 488.6 ± 15.9 mg/dL
Concentration of blood glucose 2 h [3]: 474.7 ± 18.1 mg/dL
Concentration of blood glucose 4 h [3]: 386.0 ± 21.8 mg/dL
Concentration of blood glucose 8 h [3]: 473.9 ± 28.2 mg/dL
Concentration of blood glucose 24 h [3]: 585.6 ± 15.0 mg/dL
Concentration of blood glucose 0 h [3]: 551.9 ± 18.2 mg/dL
Concentration of blood glucose (random) (0.5 mg/kg): 437.9 ± 23.9 mg/dL
Concentration of fasting blood glucose, the 9th day (1.0 mg/kg): 201.2 ± 11.4 mg/dL
Concentration of fasting blood glucose, the 22nd day (1.0 mg/kg): 224.4 ± 17.6 mg/dL
HbA1c (1.0 mg/kg): 5.9 ± 0.6 %
AUC of blood glucose (1.0 mg/kg, OGTT on the 9th day): 410.6 ± 15.6 mg·h/dL
Concentration of blood glucose 0 min (1.0 mg/kg, OGTT on the 9th day): 201.2 ± 11.4 mg/dL
Concentration of blood glucose 30 min (1.0 mg/kg, OGTT on the 9th day): 253.9 ± 7.7 mg/dL
Concentration of blood glucose 60 min (1.0 mg/kg, OGTT on the 9th day): 205.3 ± 9.8 mg/dL
Concentration of blood glucose 120 min (1.0 mg/kg, OGTT on the 9th day): 158.6 ± 8.8 mg/dL
AUC of blood glucose (1.0 mg/kg, non-fasting, 6th day, 0-24 h): 10310 ± 308.4 mg·h/dL
Concentration of blood glucose 1 h [4]: 417.1 ± 14.8 mg/dL
Concentration of blood glucose 2 h [4]: 409.8 ± 16.7 mg/dL
Concentration of blood glucose 4 h [4]: 323.8 ± 16.1 mg/dL
Concentration of blood glucose 8 h [4]: 368.3 ± 19.4 mg/dL
Concentration of blood glucose 24 h [4]: 550.3 ± 17.0 mg/dL
Concentration of blood glucose 0 h [4]: 444.1 ± 19.2 mg/dL
Concentration of blood glucose (random) (1.0 mg/kg): 395.8 ± 24.1 mg/dL
Concentration of fasting blood glucose, the 9th day (2.0 mg/kg): 184.9 ± 18.3 mg/dL
Concentration of fasting blood glucose, the 22nd day (2.0 mg/kg): 211.9 ± 17.8 mg/dL
HbA1c (2.0 mg/kg): 6.0 ± 0.4 %
AUC of blood glucose (2.0 mg/kg, OGTT on the 9th day): 393.9 ± 25.6 mg·h/dL
Concentration of blood glucose 0 min (2.0 mg/kg, OGTT on the 9th day): 184.9 ± 18.3 mg/dL
Concentration of blood glucose 30 min (2.0 mg/kg, OGTT on the 9th day): 246.0 ± 11.7 mg/dL
Concentration of blood glucose 60 min (2.0 mg/kg, OGTT on the 9th day): 205.1 ± 12.6 mg/dL
Concentration of blood glucose 120 min (2.0 mg/kg, OGTT on the 9th day): 141.7 ± 14.6 mg/dL
